We go through one molecule from patent US11344564B1, “Method of treatment based on reduced monoamine oxidase a activity” (Lennham Pharmaceuticals, Inc., priority 2021, dated 2022).

In one series the target is T1, human MAO-A (Homo sapiens, UniProt P21397).
T1 sequence (P21397 1-527): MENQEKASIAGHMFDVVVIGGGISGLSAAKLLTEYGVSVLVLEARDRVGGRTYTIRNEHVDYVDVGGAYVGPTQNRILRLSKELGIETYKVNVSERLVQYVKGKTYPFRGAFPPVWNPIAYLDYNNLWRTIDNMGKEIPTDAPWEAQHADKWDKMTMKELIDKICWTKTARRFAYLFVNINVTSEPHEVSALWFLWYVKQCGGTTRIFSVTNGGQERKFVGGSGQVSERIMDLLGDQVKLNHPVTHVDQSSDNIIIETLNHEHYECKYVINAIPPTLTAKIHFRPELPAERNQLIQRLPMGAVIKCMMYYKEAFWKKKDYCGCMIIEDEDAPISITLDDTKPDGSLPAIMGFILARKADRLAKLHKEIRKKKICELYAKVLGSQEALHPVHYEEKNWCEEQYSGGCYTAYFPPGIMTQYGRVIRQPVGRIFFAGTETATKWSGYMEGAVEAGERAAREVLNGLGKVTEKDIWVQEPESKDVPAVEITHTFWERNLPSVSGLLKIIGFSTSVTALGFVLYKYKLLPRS
As to the kind of experiment: in vitro metabolism of psilocin by human MAO-A. The format is in vitro ADME. The settings on record: test compound 0.2 and 2 μM; protein 0.03, 0.1, 0.3 and 1 mg/ml; incubation 0-30 min, 37° C., pH 7.4, no cofactors (FIGS. 1A & 1B).

The target of a further series is T2, human MAO-B (Homo sapiens, UniProt P27338).
T2 sequence (P27338 1-520): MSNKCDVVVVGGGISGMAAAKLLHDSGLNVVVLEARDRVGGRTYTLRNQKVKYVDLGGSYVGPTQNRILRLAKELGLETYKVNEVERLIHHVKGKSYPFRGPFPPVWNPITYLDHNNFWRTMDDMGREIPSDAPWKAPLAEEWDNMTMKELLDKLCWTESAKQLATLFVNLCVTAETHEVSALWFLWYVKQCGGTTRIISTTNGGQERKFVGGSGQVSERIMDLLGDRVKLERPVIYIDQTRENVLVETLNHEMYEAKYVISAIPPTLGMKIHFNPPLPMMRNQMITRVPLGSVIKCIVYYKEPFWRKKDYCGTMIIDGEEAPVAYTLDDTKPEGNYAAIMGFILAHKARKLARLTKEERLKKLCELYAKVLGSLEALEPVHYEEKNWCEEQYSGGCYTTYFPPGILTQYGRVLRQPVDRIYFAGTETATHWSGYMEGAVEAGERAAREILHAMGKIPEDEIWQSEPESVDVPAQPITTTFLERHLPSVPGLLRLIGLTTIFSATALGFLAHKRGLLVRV
As to the kind of experiment: in vitro metabolism of psilocin by human MAO-B. Type of series: in vitro ADME. The settings on record: test compound 0.2 and 2 μM; protein 0.03, 0.1, 0.3 and 1 mg/ml; incubation 0-30 min, 37° C., pH 7.4, no cofactors (FIGS. 1C & 1D).

With `CN(C)CCc1c[nH]c2cccc(O)c12` [psilocin, 4-hydroxy-N,N-dimethyltryptamine], the “metabolism by human MAO-A” value at human MAO-A is “is metabolized by human MAO-A”. At human MAO-B, the “metabolism by human MAO-B” value is listed as “not human MAO-B”.
